Legend:
rat H3R = target: T1, rat H3R (Rattus norvegicus, UniProt Q9QYN8); assay: In vitro binding to H3Rs, rat cerebral cortex membranes, [^3H]N-α-methylhistamine; conditions: 1 nM [^3H]N-α-methylhistamine, geometric mean, n = 3, read-out: Affinity for H3Rs Rat, IC50
T1 construct: Rat cerebral cortex and monkey frontal cortex were dissected; from tissue; host or cells: rat cerebral cortex membranes
Description: Rat cerebral cortex and monkey frontal cortex were dissected, homogenized with 50 mM Tris buffer (pH 7.4) containing 5 mM EDTA and Protease Inhibitor Cocktail Tablets (Roche Diagnostics, Indianapolis, IN) and centrifuged at 48,000×g for 15 min at 4 °C. The pellets were then suspended in binding buffer (50 mM Tris containing 5 mM EDTA, pH 7.4) and stored at −80 °C as membrane preparations.
The membrane preparations were thawed and incubated in the binding buffer containing 0.1 % bovine serum albumin, 1 nM [^3H]N-α-methylhistamine (PerkinElmer, Waltham, MA) with various concentrations of a dihydroquinolinone derivative (i.e., test compound) at 25 °C for 1 h. The reaction was terminated by rapid filtration through 96-well GF/C filter plates (PerkinElmer) presoaked with 0.5 % polyethyleneimine (Wako, Osaka, Japan). After washes with ice-cold binding buffer, the plates were dried and filled with Microscint-o (PerkinElmer). The radioactivity retained on the filters was counted using a TopCount NXT (PerkinElmer). Total and nonspecific radioligand binding was determined by reaction without and with 10 μM thioperamide and clobenpropit, respectively. The specific radioligand binding was then calculated by subtracting the nonspecific binding from the total binding. The IC50 value for inhibition of the radioligand binding by the test compound was determined using a nonlinear fit of the concentration-response curve for each test compound using SAS 9.2 (SAS Institute Inc., Cary, NC). Data were expressed as the geometric means of IC50 values from three independent experiments run in duplicate.

P-glycoprotein (MDR1) = target: T2, P-glycoprotein (MDR1) (Homo sapiens, UniProt P08183); assay: P-glycoprotein-mediated transcellular transport, LLC-GA5-COL300 cells; assay type: in vitro ADME; conditions: for susceptibility for P-glycoprotein (substrate or not): assumed criterion: efflux ratio (ER) exceeding 2.00; for efflux ratio at 2 h, 1 µM: human, LLC-PK1, ER=Papp, b to a/Papp, a to b, LLC-GA5-COL300 cells
T2 construct: expressed in transfected cells; host or cells: LLC-GA5-COL300
T2 sequence (P08183 whole entry): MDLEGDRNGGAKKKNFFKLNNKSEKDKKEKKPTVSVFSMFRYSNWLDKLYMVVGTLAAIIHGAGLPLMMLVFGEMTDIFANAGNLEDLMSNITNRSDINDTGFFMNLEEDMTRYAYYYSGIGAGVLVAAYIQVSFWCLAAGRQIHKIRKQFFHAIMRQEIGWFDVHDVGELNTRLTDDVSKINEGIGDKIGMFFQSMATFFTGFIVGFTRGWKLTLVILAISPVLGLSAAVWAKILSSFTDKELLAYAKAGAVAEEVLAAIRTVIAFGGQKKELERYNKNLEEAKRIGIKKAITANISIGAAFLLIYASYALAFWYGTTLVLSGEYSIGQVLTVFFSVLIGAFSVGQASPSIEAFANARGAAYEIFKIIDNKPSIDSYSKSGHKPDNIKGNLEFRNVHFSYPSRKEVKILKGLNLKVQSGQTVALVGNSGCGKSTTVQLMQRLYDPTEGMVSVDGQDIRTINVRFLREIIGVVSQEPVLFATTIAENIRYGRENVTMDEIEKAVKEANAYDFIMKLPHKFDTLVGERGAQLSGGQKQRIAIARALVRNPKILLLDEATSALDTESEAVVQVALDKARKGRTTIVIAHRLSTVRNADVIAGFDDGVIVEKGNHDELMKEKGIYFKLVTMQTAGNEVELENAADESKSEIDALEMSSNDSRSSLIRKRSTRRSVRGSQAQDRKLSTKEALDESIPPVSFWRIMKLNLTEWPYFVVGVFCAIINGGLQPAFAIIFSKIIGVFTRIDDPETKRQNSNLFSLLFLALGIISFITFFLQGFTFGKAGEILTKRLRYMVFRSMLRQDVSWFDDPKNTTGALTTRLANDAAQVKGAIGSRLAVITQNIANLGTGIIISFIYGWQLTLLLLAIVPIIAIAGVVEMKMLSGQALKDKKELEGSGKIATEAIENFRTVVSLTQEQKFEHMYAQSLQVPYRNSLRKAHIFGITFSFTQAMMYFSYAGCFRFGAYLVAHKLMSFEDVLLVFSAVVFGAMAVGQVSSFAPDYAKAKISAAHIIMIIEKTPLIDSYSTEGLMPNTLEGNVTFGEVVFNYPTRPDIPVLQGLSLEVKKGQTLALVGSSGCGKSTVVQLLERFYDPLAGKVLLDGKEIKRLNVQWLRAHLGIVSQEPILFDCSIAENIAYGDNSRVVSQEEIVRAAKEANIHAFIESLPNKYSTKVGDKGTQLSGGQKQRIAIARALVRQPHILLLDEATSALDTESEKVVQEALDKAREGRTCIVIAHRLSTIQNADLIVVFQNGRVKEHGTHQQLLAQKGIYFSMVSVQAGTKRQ
Description: Assays for P-glycoprotein-mediated transcellular transport of compounds LLC-GA5-COL300 cells expressing human P-glycoprotein were seeded at a density of 4.5 × 10^5 cells/cm2 onto polycarbonate membrane filters of 12-well cell culture insert plates and cultured at 37°C in a humidified incubator containing 5% CO2 for 3 days. After each cell monolayer was pre-incubated at 37°C for 20 min in Hank’s balanced salt solution containing 10 mM HEPES (HBSS buffer), transcellular transport experiments were initiated by adding the test compound solution to the apical or basal side of the cell culture inserts. HBSS buffer was sampled from the compartment opposite of that spiked with the test compounds at 0.5, 1, 1.5 and 2 h after initiation of the experiments, and concentrations of the test compounds were determined using LC-MS/MS. The apparent permeability coefficient (Papp) of the test compounds was calculated using the following equation:
Papp= dQ/dt / C0 / A Eq. 1, where dQ/dt represents the rate of permeation of the compounds, C0 is the initial concentration of the test compounds ([…]), and A is the area of the monolayer. The efflux ratio (ER) was defined as […]
ER=Papp, b to a/Papp, a to b Eq. 2, where Papp, b to a and Papp, a to b represent Papp in the basal-to-apical (b to a) and apical-to-basal (a to b) directions, respectively. […]

[1] = Ex vivo pharmacokinetic assessment in the rat brain using LC-MS/MS; conditions: 10 μg/kg intravenous, n = 3
Description: The rats were decapitated at 5, 15, 30, 60, and 120 min after intravenous administration of TASP0390136, TASP0390174, TASP0410426, TASP0410427, TASP0410457, or TASP0434988 at a dose of 10 μg/kg. The cerebellum and forebrain, including the medial prefrontal and cingulate cortices and anterior striatum, were dissected and homogenized with four volumes of distilled water. The homogenates were protein-precipitated with methanol/acetonitrile (1:9) and were centrifuged at 3974×g for 10 min at 4 °C. The resultant supernatants were injected into an HPLC (Shimadzu-20AD, Shimadzu, Kyoto, Japan) and a tandem mass spectrometer (API4000, AB SCIEX, Framingham, MA) using a Shim-pak XR-ODS column (3.0 × 30 mm, Shimadzu) at 50 °C. TASP0410457 was eluted with a mobile phase consisting of 10 mM of ammonium acetate/acetonitrile with a linear gradient at a flow rate of 1.3 mL/min, and ammonium formate instead of ammonium acetate was used for eluting the other five compounds. […] The eluted TASP0390136, TASP0390174, TASP0410426, TASP0410427, TASP0410457, and TASP0434988 were ionized using an electrospray interface and were detected using reaction monitoring of the transitions of m/z 395 to 91, 395 to 98, 413 to 98, 425 to 98, 408 to 138, and 407 to 138, respectively. A dihydroquinolinone compound (6-[(1-cyclobutylpiperidin-4-yl)oxy]-1-(3,5-difluorophenyl)-3,4-dihydroquinolin-2(1H)-one) was used as an internal standard for all assays. The lower qualification limit for TASP0410457 was 0.05 ng/g tissue, and the limit for the other five compounds was 0.15 ng/g tissue. Data were expressed as standardized uptake values (SUVs) calculated as follows: SUV=tissueconcentrationg/g×bodyweightg/injecteddoseg

Benzodiazepine (central) = assay: Off-target binding (Cerep); parameters: unit of the concentration uncertain
Text: (§1) Off-target binding of compounds assessed using an in-house assay (M4) and a commercial battery (all
(§2) others) (Cerep, Celle L'Evescault, France).
(§3) Concentration % Inhibition Concentration % Inhibition Concentration % Inhibition […]

[2] = tested on: Ca2+ channel (L, dihydropyridine site); assay: Off-target binding (Cerep); parameters: unit of the concentration uncertain
Text: as §1, §2, §3

Glutamate Kainate = assay: Off-target binding (Cerep); parameters: unit of the concentration uncertain
Text: as §1, §2

Imidazoline I2 = assay: Off-target binding (Cerep); parameters: unit of the concentration uncertain
Text: as §1, §2

Opioid kappa (KOP) = assay: Off-target binding (Cerep); parameters: unit of the concentration uncertain
Text: as §1, §2

Serotonin 5-HT1B = assay: Off-target binding (Cerep); parameters: unit of the concentration uncertain
Text: as §1, §2

Serotonin 5-HT1D = assay: Off-target binding (Cerep); parameters: unit of the concentration uncertain
Text: as §1, §2

[3] = Concentration 10 (unit uncertain)
[4] = Concentration 1 (unit uncertain)

T1 sequence (Q9QYN8 whole entry): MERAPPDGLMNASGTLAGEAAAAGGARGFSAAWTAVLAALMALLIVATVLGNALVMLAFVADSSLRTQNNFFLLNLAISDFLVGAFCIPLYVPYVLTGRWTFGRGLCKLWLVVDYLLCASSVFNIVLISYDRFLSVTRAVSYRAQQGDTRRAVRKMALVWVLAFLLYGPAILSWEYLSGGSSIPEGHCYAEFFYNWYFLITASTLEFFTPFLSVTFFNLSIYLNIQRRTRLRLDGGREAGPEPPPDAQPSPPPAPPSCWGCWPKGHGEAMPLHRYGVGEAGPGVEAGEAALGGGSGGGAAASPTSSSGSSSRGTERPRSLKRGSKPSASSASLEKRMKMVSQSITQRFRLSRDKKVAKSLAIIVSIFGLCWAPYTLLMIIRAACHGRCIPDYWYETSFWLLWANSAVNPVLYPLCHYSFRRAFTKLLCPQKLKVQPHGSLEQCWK

| IC50 (rat H3R) | susceptibility for P-glycoprotein (substrate or not) (P-glycoprotein (MDR1)) | efflux ratio at 2 h, 1 µM (P-glycoprotein (MDR1)) | Mean peak concentration in the forebrain expressed as SUV [1] | % Inhibition (Benzodiazepine (central); [3]) | % Inhibition [2, 3] | % Inhibition (Glutamate Kainate; [3]) | % Inhibition (Imidazoline I2; [3]) | % Inhibition (Opioid kappa (KOP); [3]) | % Inhibition (Serotonin 5-HT1B; [3]) | % Inhibition (Serotonin 5-HT1D; [3]) | % Inhibition (Benzodiazepine (central); [4]) | % Inhibition [2, 4] | % Inhibition (Glutamate Kainate; [4]) | % Inhibition (Imidazoline I2; [4]) | % Inhibition (Opioid kappa (KOP); [4]) | % Inhibition (Serotonin 5-HT1B; [4]) | % Inhibition (Serotonin 5-HT1D; [4]) | Structure (SMILES) |
| --- | --- | --- | --- | --- | --- | --- | --- | --- | --- | --- | --- | --- | --- | --- | --- | --- | --- | --- |
| 2.74 nM | P-glycoprotein substrates | 6.29 | 0.30 SUV | -19% | 20% | -11% | 23% | 11% | -25% | 5% |  |  |  |  |  |  |  | COc1ccc(N2C(=O)CCc3cc(OCCCN4CCC[C@H]4C)ccc32)cc1 [TASP0390136, 1-(4-methoxyphenyl)-6-{3-[(2R)-2-methylpyrrolidin-1-yl]propoxy}-3,4-dihydroquinolin-2(1H)-one] |
| 2.34 nM | not a substrate of P-glycoprotein | 1.64 | 0.85 SUV | -4% | -23% | -12% | 1% | -6% | 25% | 17% |  |  |  |  |  |  |  | COc1ccc(N2C(=O)CCc3cc(OC4CCN(C5CCC5)CC4)ccc32)cn1 [TASP0410457, 6-[(1-Cyclobutylpiperidin-4-yl)oxy]-1-(6-methoxypyridin-3-yl)-3,4-dihydroquinolin-2(1H)-one] |
| 0.783 nM | P-glycoprotein substrates | 2.14 | 0.58 SUV |  |  |  |  |  |  |  | -2% | -27% | 4% | 16% | -12% | 3% | -12% | COc1ccc(N2C(=O)CCc3cc(OC4CCN(C5CCC5)CC4)ccc32)cc1 [TASP0434988, 6-[(1-cyclobutylpiperidin-4-yl)oxy]-1-(4-methoxyphenyl)-3,4-dihydroquinolin-2(1H)-one] |
